According to US9284325B2, “Spectinamides as anti-tuberculosis agents” (UNIVERSITY OF TENNESSEE RESEARCH FOUNDATION, priority 2009, dated 2016):
Converted amounts (≈) assume the structure as drawn. Counter-ions that a name gives are not always drawn. Like-named read-outs stand apart in the source and are kept apart here.

Experiments:
[1] = Cytotoxicity, MTT cell proliferation assay; details: African green monkey, Vero epithelial cells (ATCC CCL-81)
Vero epithelial cells [2] = test: Cytotoxicity, MTT cell proliferation assay; details: Vero IC50 / M. tuberculosis MIC
[3] = tested on: Strep. pyogenes ATCC 700294; test: MIC determination by microbroth dilution; format: cell-based, Streptococcus pyogenes; details: for MIC: Streptococcus pyogenes, ATCC700294, read-out: MIC S. pyogenes
[4] = tested on: Burkholderia cepacia ATCC 25416; test: MIC determination by microbroth dilution; format: cell-based; details: for MIC: ATCC25416, read-out: MIC B. cepcia
[5] = tested on: Strep. pneumoniae DAW27 or strain R6; test: MIC determination by microbroth dilution; format: cell-based, Streptococcus pneumoniae; details: Strep. pneumoniae DAW27 or strain R6 (for 1443-1544); for MIC: Streptococcus pneumoniae, read-out: MIC S. pneumoniae
[6] = tested on: protein synthesis in whole cell M. bovis BCG; format: cell-based
M. tuberculosis H37Rv = test: MIC determination by microbroth dilution, anti-tuberculosis activity; format: cell-based, Mycobacterium tuberculosis
[7] = tested on: Klebsiella pneumoniae ATCC 33495; test: MIC determination by microbroth dilution; format: cell-based; details: for MIC: ATCC33495
[8] = tested on: Proteus mirabilis ATCC 25933; test: MIC determination by microbroth dilution; format: cell-based; details: for MIC: ATCC25933
[9] = tested on: Acinetobacter baumannii ATCC 19606; test: MIC determination by microbroth dilution; format: cell-based; details: for MIC: ATCC19606
[10] = tested on: Proteus vulgaris ATCC 33420; test: MIC determination by microbroth dilution; format: cell-based; details: for MIC: ATCC33420
[11] = tested on: Strenotrophomonas maltophilia ATCC 13637; test: MIC determination by microbroth dilution; format: cell-based
Borrelia burgdorferi = details: spirochete Borrelia burgdorferi, Criswell et al.; cited from earlier work
P. aeruginosa PAO1 = test: MIC determination by microbroth dilution; format: cell-based, Pseudomonas aeruginosa; details: for MIC: Pseudomonas aeruginosa
E. coli K12 ΔtolC = test: microbe, parasite or virus in culture; format: cell-based; details: for MIC: Escherichia coli, read-out: MIC E. coli K12 ΔtolC
Vero epithelial cells [12] = details: African green monkey
B. anthracis Sterne 34F2 = test: microbe, parasite or virus in culture; format: cell-based, Bacillus anthracis; details: for MIC: Bacillus anthracis, STERNE34F2, read-out: MIC B. anthracis 34F2
E. coli ribosomes = format: biochemical; details: for IC50, 50% inhibition of luciferase biosynthesis in S30 assay: E. coli S30 transcription/translation assay
E. faecalis ATCC 33186 = test: MIC determination by microbroth dilution; format: cell-based, Enterococcus faecalis; details: for MIC: Enterococcus faecalis, ATCC33186
[13] = tested on: S. aureus 8325 or strain ATCC 29213; test: MIC determination by microbroth dilution; format: cell-based, Staphylococcus aureus; details: S. aureus 8325 or strain ATCC 29213 (for 1471-1544); for MIC: Staphylococcus aureus, ATCC29213
E. coli K12 = test: MIC determination by microbroth dilution; format: cell-based, Escherichia coli; details: for MIC: Escherichia coli, K12
[14] = Mycobacterium tuberculosis, H37RV, 168 h, read-out: MIC

Molecule | IC50 at 72 h [1] | MIC [3] | MIC [4] | MIC [5] | MIC [7] | MIC [8] | MIC [9] | MIC [10] | MIC [11] | frequency at which resistance arises (Borrelia burgdorferi) | MIC (P. aeruginosa PAO1) | MIC (E. coli K12 ΔtolC) | therapeutic index (IC50 divided by the MIC) (Vero epithelial cells [12]) | MIC (B. anthracis Sterne 34F2) | IC50, 50% inhibition of luciferase biosynthesis in S30 assay (E. coli ribosomes) | MIC (E. faecalis ATCC 33186) | MIC [13] | MIC (E. coli K12) | MIC (M. tuberculosis H37Rv; [14]) | other results
CC[C@@H](CO)NCCN[C@@H](CC)CO [Ethambutol] | 732 µg/mL (≈ 3580 µM) |  |  |  |  |  |  |  |  |  |  |  |  |  |  |  |  |  |  | therapeutic index (IC50 divided by the MIC) (Vero epithelial cells [2]): 913.8
[H]/N=C(/N)N[C@H]1[C@H](O)[C@@H](O)[C@H](O[C@@H]2O[C@@H](C)[C@](O)(C=O)[C@H]2O[C@@H]2O[C@@H](CO)[C@H](O)[C@@H](O)[C@@H]2NC)[C@@H](N/C(N)=N\[H])[C@@H]1O [Streptomycin, reference compound] | 1540 µg/mL (≈ 2640 µM) | 25 µg/mL (≈ 43 µM) | > 200 µg/mL | 12.5 µg/mL (≈ 21.5 µM) | > 200 µg/mL | 50 µg/mL (≈ 86 µM) | > 200 µg/mL | 1.6 µg/mL (≈ 2.75 µM) | 3.12 µg/mL (≈ 5.36 µM) | ≥ 10^−7 | 25 µg/mL (≈ 43 µM) | 1.6 µg/mL (≈ 2.75 µM) | 7680.5 | 0.8 µg/mL (≈ 1.38 µM) | 0.27 µg/mL | 50 µg/mL (≈ 86 µM) | 0.4 µg/mL (≈ 0.688 µM) | 0.8 µg/mL (≈ 1.38 µM) |  | inhibition of protein synthesis [6]: inhibited protein synthesis; Activity (MIC) of 1329 compared to streptomycin (M. tuberculosis H37Rv): 0.2
CN[C@@H]1[C@H](O)[C@H](NC)[C@H]2O[C@@]3(O)C(=O)C[C@@H](C)O[C@H]3O[C@@H]2[C@H]1O [Spectinomycin, reference compound] | 1030 µg/mL (≈ 3100 µM) | 25 µg/mL (≈ 75.2 µM) | > 200 µg/mL | 50 µg/mL (≈ 150 µM) | 50 µg/mL (≈ 150 µM) | > 200 µg/mL | > 200 µg/mL | 50 µg/mL (≈ 150 µM) | > 200 µg/mL | 10^−6 | 100 µg/mL (≈ 301 µM) | 12.5 µg/mL (≈ 37.6 µM) | 41.5 | 25 µg/mL (≈ 75.2 µM) | 0.32 µg/mL | 50 µg/mL (≈ 150 µM) | 25 µg/mL (≈ 75.2 µM) | 12.5 to 50 µg/mL (≈ 37.6 to 150 µM) | 25 µg/mL (≈ 75.2 µM) | IC50 (E. coli ribosomes; E. coli S30 system, FIG. 4, read-out: concentration causing 50% reduction in the synthesis of luciferase): 900 nM
CN[C@@H]1[C@H](O)[C@H](NC)C2O[C@]3(O)C(OC2[C@H]1O)O[C@H](C)C[C@H]3NC(=O)Cc1c[nH]cn1 (stereo partly drawn) [Compound 1466, 3′-Dihydro-3′-deoxy-4(R)-(1H-imidazol-4-yl)acetylamino spectinomycin tetradrobromide] |  | 25 µg/mL (≈ 56.6 µM) | > 200 µg/mL | 12.5 µg/mL (≈ 28.3 µM) | > 200 µg/mL | > 200 µg/mL | > 200 µg/mL | > 200 µg/mL | > 200 µg/mL |  | > 200 µg/mL | 50 µg/mL (≈ 113 µM) |  | > 200 µg/mL | 0.57 µg/mL | > 200 µg/mL | > 200 µg/mL | 100 µg/mL (≈ 227 µM) | 6.25 µg/mL (≈ 14.2 µM) | 
CN[C@@H]1[C@H](O)[C@H](NC)C2O[C@]3(O)C(OC2[C@H]1O)O[C@H](C)C[C@H]3NC(=O)Cc1ccccc1 (stereo partly drawn) [Compound 1398, 3′-Dihydro-3′-deoxy-4(R)-phenylacetylamino spectinomycin Dihydrochloride] |  | 50 µg/mL | > 200 µg/mL | 100 µg/mL | > 200 µg/mL | > 200 µg/mL | > 200 µg/mL | > 200 µg/mL | > 200 µg/mL |  | 100 µg/mL | 200 µg/mL |  | 100 µg/mL | 0.78 µg/mL | > 200 µg/mL | 100 µg/mL | > 200 µg/mL | 6.1 µg/mL | 
3′-Dihydro-3′-deoxy-4(R)-dodecanoylamino spectinomycin Dihydrochloride [Compound 1366] |  |  |  |  |  |  |  |  |  |  |  |  |  |  | 15.3 µg/mL |  |  |  |  | MIC S. pyogenes [3]: >200 µg/mL; MIC B. cepcia [4]: >200 µg/mL; MIC S. pneumoniae [5]: 25 µg/mL; MIC (M. tuberculosis H37Rv): 1.6 µg/mL; MIC K. pneu. [7]: >200 µg/mL; MIC P. mir [8]: >200 µg/mL; MIC A. bau. [9]: >200 µg/mL; MIC P. vul [10]: >200 µg/mL; MIC S. mal [11]: 25 µg/mL; MIC P. aer. (P. aeruginosa PAO1): 50 µg/mL; MIC E. coli K12 ΔtolC (E. coli K12 ΔtolC; tolC knockout strain, defective multi-drug efflux pump): 12.5 µg/mL; MIC B. anthracis 34F2 (B. anthracis Sterne 34F2): >200 µg/mL; MIC E. faecalis (E. faecalis ATCC 33186): 25 µg/mL; MIC S. aureus [13]: 25 µg/mL; MIC E. coli K12 (E. coli K12; E. coli K12): >200 µg/mL
